Results from ChEMBL document CHEMBL3351330, “Design, synthesis, and in vitro evaluation of an activity-based protein profiling (ABPP) probe targeting agmatine deiminases” (Bioorg Med Chem, 2014).
Active and inactive are the calls of the source. The rule behind the calls is not given here.

Columns and labels:
[1] = molecular target: T1, Putative agmatine deiminase (Streptococcus mutans serotype c (strain ATCC 700610 / UA159)) (UniProt Q8DW17); assay: Binding affinity to Streptococcus mutans agmatine deiminase expressed in Escherichia coli assessed as enzyme photo labeling at 2 to 10 uM by coomassie blue staining based gel electrophoresis method
T1 sequence (whole entry): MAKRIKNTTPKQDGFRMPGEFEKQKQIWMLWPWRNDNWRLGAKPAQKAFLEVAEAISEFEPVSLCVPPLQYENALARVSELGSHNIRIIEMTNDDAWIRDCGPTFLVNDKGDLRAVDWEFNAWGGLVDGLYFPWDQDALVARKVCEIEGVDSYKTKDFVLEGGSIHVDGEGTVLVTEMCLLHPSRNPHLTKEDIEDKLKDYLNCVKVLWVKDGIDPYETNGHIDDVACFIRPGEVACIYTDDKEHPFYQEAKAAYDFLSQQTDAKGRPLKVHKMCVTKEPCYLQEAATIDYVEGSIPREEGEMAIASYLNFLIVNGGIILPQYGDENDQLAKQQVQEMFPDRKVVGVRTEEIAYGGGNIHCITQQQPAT

[2] = molecular target: T1, Putative agmatine deiminase (Streptococcus mutans serotype c (strain ATCC 700610 / UA159)); assay: Binding affinity to Streptococcus mutans agmatine deiminase expressed in Escherichia coli assessed as enzyme photo labeling at 10 uM pre-treated with 10 uM ABCA for 45 mins by coomassie blue staining based gel electrophoresis method
[3] = molecular target: T2, Putative agmatine deiminase (Streptococcus mutans serotype c (strain ATCC 700610 / UA159), UniProt Q8DW17); assay: Inhibition of Streptococcus mutans agmatine deiminase expressed in Escherichia coli pre-incubated for 15 mins before agmatine substrate addition
T2 sequence (Q8DW17 whole entry): T1 sequence (whole entry)

[4] = molecular target: T1, Putative agmatine deiminase (Streptococcus mutans serotype c (strain ATCC 700610 / UA159)); assay: Binding affinity to Streptococcus mutans agmatine deiminase expressed in Escherichia coli assessed as enzyme level detected by compound at 10 uM after 45 mins by coomassie blue staining based gel electrophoresis method
[5] = molecular target: T1, Putative agmatine deiminase (Streptococcus mutans serotype c (strain ATCC 700610 / UA159)); assay: Binding affinity to Streptococcus mutans agmatine deiminase in presence of Escherichia coli cell lysates assessed as enzyme level detected by compound at 10 uM after 45 mins by coomassie blue staining based gel electrophoresis method
[6] = molecular target: T1, Putative agmatine deiminase (Streptococcus mutans serotype c (strain ATCC 700610 / UA159)); assay: Binding affinity to Streptococcus mutans agmatine deiminase in presence of Escherichia coli cell lysates assessed as enzyme photo labeling at 10 uM after 45 mins by coomassie blue staining based gel electrophoresis method
[7] = molecular target: T1, Putative agmatine deiminase (Streptococcus mutans serotype c (strain ATCC 700610 / UA159)); assay: Binding affinity to Streptococcus mutans agmatine deiminase expressed in Escherichia coli assessed as enzyme photo labeling at 10 uM after 45 mins by coomassie blue staining based gel electrophoresis method
[8] = molecular target: T1, Putative agmatine deiminase (Streptococcus mutans serotype c (strain ATCC 700610 / UA159)); assay: Binding affinity to Streptococcus mutans agmatine deiminase expressed in Escherichia coli assessed as enzyme photo labeling at 2 to 10 uM after 45 mins by coomassie blue staining based SDS-PAGE method

Row | Activity [1] | Activity [2] | Activity [4] [pmol] | Activity [5] [pmol] | Activity [6] | Activity [7] | Activity [8] | Compound | IC50 [3] [µM]
1 | Active | inactive | 1 | 0.5 | Active | Active | Active | N=C(CCl)NCCCCNCCCCCNC(=S)Nc1ccc(-c2c3ccc(=O)cc-3oc3cc(O)ccc23)c(C(=O)O)c1 | 10.6
2 |  |  |  |  |  |  |  | N=C(CCl)NCCCCN | 0.26
